According to patent US6656940B2, “Tricyclic quinoxaline derivatives as protein tyrosine kinase inhibitors” (Sugen, Inc., priority 1997, dated 2003):

Columns and labels:
FLK-1 receptor = molecular target: T1, FLK-1 receptor (Mus musculus, UniProt P35918); assay: FLK-1 ELISA (cellular/catalytic); type: cell-based; conditions: 50% inhibition of PTK activity compared to that in a control; read-out: FLK KINASE IC50
T1 construct: expressed in transfected cells; host or cells: NIH3T3 C7#3 cells
Protocol: (§1) The cellular/catalytic assays described herein are performed in an ELISA format. The general procedure is as follows: a compound is introduced to cells expressing the test kinase, either naturally or recombinantly, for a selected period of time after which, if the test kinase is a receptor, a ligand known to activate the receptor's activity is added. The cells are lysed and the lysate is transferred to the wells of an ELISA plate previously coated with a specific antibody recognizing the substrate of the enzymatic phosphorylation reaction. Non-substrate components of the cell lysate are washed away and the amount of phosphorylation on the substrate is detected with an antibody specifically recognizing phosphotyrosine and is compared with that of control cells that were not contacted with the test compound.
An ELISA assay is conducted to measure the kinase activity of the FLK-1 receptor and more specifically, the inhibition or activation of TK activity on the FLK-1 receptor. Specifically, the following assay can be conducted to measure kinase activity of the FLK-1 receptor in cells genetically engineered to express Flk-1.
k. NIH3T3 C7#3 Cells (FLK-1 expressing cells);
1. Coat Corning 96-well ELISA plates with 1.0 μg per well Cappel Anti-rabbit IgG antibody in 0.1M Na2CO3 pH 9.6. Bring final volume to 150 μl per well. Coat plates overnight at 4° C. […]

human EGF-R = molecular target: T2, human EGF-R (Homo sapiens, UniProt P00533); assay: EGF Receptor ELISA (cellular/catalytic); type: cell-based; conditions: 50% inhibition of PTK activity compared to that in a control; read-out: EGFR KINASE IC50
T2 construct: expressed in transfected cells; host or cells: NIH 3T3/C7 cell line
Protocol: as §1
EGF Receptor kinase activity in cells genetically engineered to express human EGF-R can be measured as described below:
1. NIH 3T3/C7 cell line (Honegger, et al., Cell 51:199-209, 1987) can be use for this assay.
3. Resuspend cells in seeding medium (DMEM, 0.5% bovine serum), and count the cells using trypan blue. […]
12. The maximal phosphotyrosine signal is determined by subtracting the value of the negative controls from the positive controls. The percent inhibition of phosphotyrosine content for extract-containing wells is then calculated, after subtraction of the negative controls.

T2 sequence (P00533 25-1210): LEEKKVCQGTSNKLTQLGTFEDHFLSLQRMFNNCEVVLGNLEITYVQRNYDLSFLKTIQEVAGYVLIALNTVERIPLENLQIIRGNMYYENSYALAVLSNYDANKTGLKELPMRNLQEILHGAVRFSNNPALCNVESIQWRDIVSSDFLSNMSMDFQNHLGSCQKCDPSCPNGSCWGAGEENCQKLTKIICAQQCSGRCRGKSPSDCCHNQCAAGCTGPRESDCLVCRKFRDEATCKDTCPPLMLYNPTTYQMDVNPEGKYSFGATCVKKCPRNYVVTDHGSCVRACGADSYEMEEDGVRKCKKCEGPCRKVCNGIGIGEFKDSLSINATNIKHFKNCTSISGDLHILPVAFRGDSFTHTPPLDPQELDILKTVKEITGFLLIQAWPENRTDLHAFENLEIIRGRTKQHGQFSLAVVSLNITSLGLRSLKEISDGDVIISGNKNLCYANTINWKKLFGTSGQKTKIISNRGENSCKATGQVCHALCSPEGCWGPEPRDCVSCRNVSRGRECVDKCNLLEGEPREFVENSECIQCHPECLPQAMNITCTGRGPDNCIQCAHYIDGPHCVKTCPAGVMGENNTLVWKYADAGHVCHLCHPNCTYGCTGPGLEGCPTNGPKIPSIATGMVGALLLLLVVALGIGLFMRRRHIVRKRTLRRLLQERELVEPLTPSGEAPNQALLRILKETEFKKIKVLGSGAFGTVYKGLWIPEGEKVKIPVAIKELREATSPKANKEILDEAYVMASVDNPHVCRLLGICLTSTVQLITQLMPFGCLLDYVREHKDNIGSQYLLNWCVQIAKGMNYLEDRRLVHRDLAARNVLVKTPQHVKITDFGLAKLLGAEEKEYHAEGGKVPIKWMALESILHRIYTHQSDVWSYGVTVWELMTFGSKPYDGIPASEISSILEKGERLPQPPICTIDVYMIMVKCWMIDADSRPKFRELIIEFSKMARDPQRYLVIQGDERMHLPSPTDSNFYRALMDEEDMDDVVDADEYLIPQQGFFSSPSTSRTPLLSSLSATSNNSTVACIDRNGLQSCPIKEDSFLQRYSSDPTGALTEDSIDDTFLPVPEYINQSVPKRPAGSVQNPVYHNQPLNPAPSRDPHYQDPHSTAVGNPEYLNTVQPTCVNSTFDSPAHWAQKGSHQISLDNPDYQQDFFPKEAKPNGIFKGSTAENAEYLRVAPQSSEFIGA
T1 sequence (P35918 20-1345): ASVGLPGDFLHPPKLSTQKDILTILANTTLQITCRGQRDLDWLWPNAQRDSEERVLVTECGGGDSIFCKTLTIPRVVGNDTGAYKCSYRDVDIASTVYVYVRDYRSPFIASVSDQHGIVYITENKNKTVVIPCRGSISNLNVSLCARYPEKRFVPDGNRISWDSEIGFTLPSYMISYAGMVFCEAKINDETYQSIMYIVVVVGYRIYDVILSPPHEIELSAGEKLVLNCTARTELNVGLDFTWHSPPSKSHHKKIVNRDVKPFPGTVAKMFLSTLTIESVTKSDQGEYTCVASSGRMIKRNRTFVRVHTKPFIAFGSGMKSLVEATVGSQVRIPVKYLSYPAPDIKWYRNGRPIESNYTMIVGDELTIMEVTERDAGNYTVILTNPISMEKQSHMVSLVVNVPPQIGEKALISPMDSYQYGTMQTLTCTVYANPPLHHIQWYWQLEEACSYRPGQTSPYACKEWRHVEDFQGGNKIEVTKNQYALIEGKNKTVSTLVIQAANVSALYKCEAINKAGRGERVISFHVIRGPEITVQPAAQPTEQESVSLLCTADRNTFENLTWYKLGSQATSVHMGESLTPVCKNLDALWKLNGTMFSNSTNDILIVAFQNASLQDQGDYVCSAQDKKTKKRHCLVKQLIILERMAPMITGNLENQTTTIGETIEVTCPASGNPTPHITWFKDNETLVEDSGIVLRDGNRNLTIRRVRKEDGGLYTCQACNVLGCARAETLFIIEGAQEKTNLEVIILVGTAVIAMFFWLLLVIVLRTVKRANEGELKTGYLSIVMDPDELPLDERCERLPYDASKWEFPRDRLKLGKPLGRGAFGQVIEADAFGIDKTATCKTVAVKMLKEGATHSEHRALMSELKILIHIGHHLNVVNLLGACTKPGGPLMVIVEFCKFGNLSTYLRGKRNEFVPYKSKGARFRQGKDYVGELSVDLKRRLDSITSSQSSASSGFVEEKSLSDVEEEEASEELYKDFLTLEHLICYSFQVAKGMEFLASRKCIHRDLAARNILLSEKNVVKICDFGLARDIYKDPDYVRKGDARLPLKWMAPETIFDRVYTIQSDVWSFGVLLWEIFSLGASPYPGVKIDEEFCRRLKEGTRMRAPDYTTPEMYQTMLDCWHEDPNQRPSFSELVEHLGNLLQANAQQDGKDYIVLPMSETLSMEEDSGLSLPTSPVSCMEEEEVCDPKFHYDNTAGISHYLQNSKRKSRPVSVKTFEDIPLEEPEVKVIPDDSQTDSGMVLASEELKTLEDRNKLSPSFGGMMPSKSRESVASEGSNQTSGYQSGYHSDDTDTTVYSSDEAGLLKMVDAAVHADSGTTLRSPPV

SMILES: Cc1nc2c(nc1C)CC1=NC(c3ccccc3)=NC1=C2 [6,7-dimethyl-2-phenylimidazo[4,5-g]quinoxaline]
- IC50 (FLK-1 receptor): 88.4 µM
- IC50 (human EGF-R): > 100 µM
